# Values quoted from earlier work as cited in patent publication EP1932526A1, “Morin, a new inhibitor of microbial hyaluronate lyase” (Leibniz-Institut für Naturstoff-Forschung und …, priority 2006, dated 2008).
# Conditions: species and route not given
compound,measurement,value
"O=c1c(O)c(-c2ccc(O)cc2O)oc2cc(O)cc(O)c12 [morin, 2',3,4',5,7-pentahydroxyflavone]",LD50 value,555 mg/kg
